Measured values from ChEMBL document CHEMBL4680264, “Progress toward a Glycoprotein VI Modulator for the Treatment of Thrombosis” (J Med Chem, 2020).
One block for each compound: values may come before it.

What was measured:
Platelet glycoprotein VI [1] = biological target: T1, Platelet glycoprotein VI (Homo sapiens, UniProt Q9HCN6); assay: Binding affinity to human platelet lysate GP6 at 0.1 uM by surface plasmon resonance analysis; assay type: subcellular
T1 sequence (Q9HCN6 whole entry): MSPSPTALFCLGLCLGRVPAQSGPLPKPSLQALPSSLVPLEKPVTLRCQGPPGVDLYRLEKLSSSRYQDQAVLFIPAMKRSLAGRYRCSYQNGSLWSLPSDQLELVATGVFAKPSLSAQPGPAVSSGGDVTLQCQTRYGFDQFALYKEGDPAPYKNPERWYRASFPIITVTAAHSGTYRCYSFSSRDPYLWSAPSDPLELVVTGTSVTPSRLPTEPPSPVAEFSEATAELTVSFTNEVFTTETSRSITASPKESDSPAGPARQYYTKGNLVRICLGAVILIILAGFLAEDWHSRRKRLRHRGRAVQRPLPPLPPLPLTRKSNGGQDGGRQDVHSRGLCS

[2] = Inhibition of ADP-induced platelet aggregation in rabbit platelet suspension preincubated for 10 mins followed by ADP stimulation by turbidimetric method; assay type: functional, tissue-based; settings: Oryctolagus cuniculus
[3] = Inhibition of arachidonic acid-induced platelet aggregation in rabbit platelet suspension preincubated for 10 mins followed by AA stimulation by turbidimetric method; assay type: functional, tissue-based; settings: Oryctolagus cuniculus
[4] = Inhibition of PAF-induced platelet aggregation in rabbit platelet suspension preincubated for 10 mins followed by PAF stimulation by turbidimetric method; assay type: functional, tissue-based; settings: Oryctolagus cuniculus
[5] = Inhibition of ADP-stimulated human platelet aggregation assessed as ADP light transmission at 50 uM preincubated for 5 min followed by ADP stimulation by light transmission aggregometry (reference value: 62 +/- 3%); assay type: functional; design: scale not given: the % may be the effect or the level left
[6] = biological target: T2, Platelet glycoprotein VI (Homo sapiens) (UniProt Q9HCN6); settings: Plasma, filed as modulator, time 15.0 min
T2 sequence (whole entry): T1 sequence (Q9HCN6 whole entry)

[7] = biological target: T3, Thromboxane A2 receptor (Homo sapiens) (UniProt P21731); assay: Modulation of TxA2 receptor in human platelet suspension assessed as lowest concentration that reduced U46619-induced platelet aggregation preincubated for 5 min followed by U46619 stimulation by light transmission aggregometry; assay type: tissue-based; settings: filed as modulator
T3 sequence (whole entry): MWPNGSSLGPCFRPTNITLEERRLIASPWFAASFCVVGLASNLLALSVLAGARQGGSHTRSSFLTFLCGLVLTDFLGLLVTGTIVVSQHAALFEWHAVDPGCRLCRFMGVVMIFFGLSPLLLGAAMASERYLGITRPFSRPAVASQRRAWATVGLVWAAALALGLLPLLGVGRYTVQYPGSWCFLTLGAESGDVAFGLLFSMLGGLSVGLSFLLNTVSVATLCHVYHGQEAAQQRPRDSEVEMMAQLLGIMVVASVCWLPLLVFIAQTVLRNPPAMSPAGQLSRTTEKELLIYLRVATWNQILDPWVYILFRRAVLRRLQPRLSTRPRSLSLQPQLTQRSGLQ

[8] = biological target: T3, Thromboxane A2 receptor (Homo sapiens); assay: Inhibition of [3H]-U46619 binding to TxA2 receptor in human platelet suspension at 0.7 uM incubated for 30 mins by liquid scintillation counting method relative to control; assay type: tissue-based
Platelet glycoprotein VI [9] = biological target: T1, Platelet glycoprotein VI; assay: Binding affinity to recombinant GP6 (unknown origin) at protein to compound ratio of 1 : 1 to 1 : 10 by 2D 15N-1H TROSY-HSQC NMR spectroscopy
[10] = Inhibition of arachidonic acid-induced platelet aggregation in human platelet suspension preincubated for 3 mins followed by […] and measured after 6 mins by lumi-aggregometry; assay type: functional, tissue-based
[11] = Inhibition of ADP-induced platelet aggregation in human platelet suspension preincubated for 3 mins followed by […] and measured after 6 mins by lumi-aggregometry; assay type: functional, tissue-based
[12] = Inhibition of collagen-induced platelet aggregation in human platelet suspension preincubated for 3 mins followed by collagen stimulation and measured after 6 mins by lumi-aggregometry; assay type: functional, tissue-based
[13] = Inhibition of collagen-induced human platelet aggregation preincubated for 20 mins followed by collagen stimulation and measured for 10 mins by aggregometry; assay type: functional, tissue-based
[14] = Modulation of GP6 in porcine platelet-rich plasma assessed as reduction in convulxin-induced platelet aggregation; assay type: tissue-based; settings: Sus scrofa
Platelet glycoprotein VI [15] = biological target: T1, Platelet glycoprotein VI; assay: Modulation of GP6 in human platelets assessed as reduction in convulxin-induced P-selectin expression preincubated for 20 mins followed by convulxin stimulation and measured after 1 min by Western blot analysis; assay type: tissue-based
[16] = Modulation of GP6/FcRgamma in human platelet-rich plasma assessed as reduction in convulxin-induced platelet aggregation
[17] = Antagonist activity at GP6 in human platelet assessed as reduction in CRP-induced platelet-aggregation preincubated for 60 secs followed by […] by light transmission aggregometry
[18] = Inhibition of collagen-induced platelet aggregation in human platelet suspension preincubated for 10 mins followed by collagen stimulation by light transmission-based assay; assay type: functional, tissue-based
[19] = Inhibition of human platelet adhesion to immobilised CRP-XL at 1 umol/L preincubated for 4 mins followed by CRP-XL addition and measured after 45 mins relative to control; assay type: functional; settings: 49 min, dose 1 µmol/L
[20] = Inhibition of human platelet lamellipodia formation on CRP-XL 1 umol/L preincubated for 4 mins followed by CRP-XL addition and measured after 45 mins (reference value: 69%); assay type: functional; settings: dose 1 µmol/L, time 49 min, at 1 µM
Platelet glycoprotein VI [21] = biological target: T1, Platelet glycoprotein VI; assay: Binding affinity to human platelet lysate GP6 at 100 uM by surface plasmon resonance analysis; assay type: subcellular
[22] = biological target: T3, Thromboxane A2 receptor (Homo sapiens); assay: Inhibition of [3H]-U46619 binding to TxA2 receptor in human platelet suspension at 0.3 uM incubated for 30 mins by liquid scintillation counting method relative to control; assay type: tissue-based

Compound: CCCCc1nc(Cl)c(CO)n1Cc1ccc(-c2ccccc2-c2nnn[nH]2)cc1 [LOSARTAN]
- Activity [5]: 39%
- MEC [6]: 500 µM
- MEC [7]: 0.5 µM
- inhibition [8]: 50%

Compound: CCCc1nc2c(C)cc(-c3nc4ccccc4n3C)cc2n1Cc1ccc(-c2ccccc2C(=O)O)cc1
- Activity [5]: 48%
- MEC [7]: 5 µM

Compound: H-YSDTDWLYFSTS-OH
- Kd (Platelet glycoprotein VI [9]): 57 µM

Compound: CCCCc1nc(Cl)c(C=O)n1Cc1ccc(-c2ccccc2-c2nn[nH]n2)cc1
- MEC [6]: 500 µM

Compound: CCCc1nc(C(C)(C)O)c(C(=O)O)n1Cc1ccc(-c2ccccc2-c2nnn[nH]2)cc1 [OLMESARTAN]
- Kd (Platelet glycoprotein VI [9]): 300 µM

Compound: CC(C)=CCC/C(C)=C/C=C/C(C)=C/C=C/C(C)=C/C=C/C=C(C)/C=C/C=C(C)/C=C/C=C(\C)CCC=C(C)C [LYCOPENE]
- IC50 [10]: 6.8 µM
- IC50 [11]: 6.2 µM
- IC50 [12]: 5.8 µM

Compound: C/C(O)=C(\C#N)C(=O)Nc1cc(Br)ccc1Br
- IC50 [13]: 2.8 µM

Compound: CCOc1nc2cccc(C(=O)O)c2n1Cc1ccc(-c2ccccc2-c2nnn[nH]2)cc1
- Activity [5]: 60%

Compound: Cc1cccc(Nc2nc(N[C@@H]3CCCC[C@@H]3N)ncc2C(N)=O)c1
- IC50 [14]: 0.35 µM
- IC50 (Platelet glycoprotein VI [15]): 0.048 µM
- IC50 [16]: 2.5 µM

Compound: CCCCC(=O)N(Cc1ccc(-c2ccccc2-c2nnn[nH]2)cc1)[C@H](C(=O)O)C(C)C
- Kd (Platelet glycoprotein VI [9]): 100 µM
- Activity [5]: 53%
- MEC [7]: 50 µM

Compound: CN(C)CCCSc1ccccc1NC(=O)/C=C/c1ccccc1 [CINANSERIN]
- IC50 [17]: 35 µM

Compound: C=CC(=O)N1CCC[C@@H](n2nc(-c3ccc(Oc4ccccc4)cc3)c3c(N)ncnc32)C1 [IBRUTINIB]
- inhibition at 1 µM [19]: 70%
- inhibition (INH) [20]: 11%

Compound: c1ccc(-c2cccc(-c3nn[nH]n3)c2)cc1
- Kd (Platelet glycoprotein VI [9]): 80 µM

Compound: c1ccc(CCCCOc2ccc(-c3ccccc3-c3nn[nH]n3)cc2)cc1
- Kd (Platelet glycoprotein VI [9]): 850 µM

Compound: C=CCc1ccc(O)c(-c2ccc(O)c(CC=C)c2)c1 [HONOKIOL]
- IC50 [12]: 0.6 µM
- Kd (Platelet glycoprotein VI [21]): 289 µM

Compound: O=C(O)c1ccccc1-c1ccccc1
- Kd (Platelet glycoprotein VI [9]): 1500 µM

Compound: Cc1ccccc1-c1nn[nH]n1
- Kd (Platelet glycoprotein VI [9]): 1100 µM

Second part, led by results:

- Kd (Platelet glycoprotein VI [1]): 0.0411 µM
Compound: NCCCC(=O)O [GAMMA-AMINOBUTYRIC ACID]

- IC50 [2]: 4.4 µM
- IC50 [3]: 14.1 µM
- IC50 [4]: 13.7 µM
Compound: C=C1C(=O)[C@@]23[C@H](O)C[C@@H]4C(C)(C)C(=O)CC[C@@]4(C)[C@@H]2CC[C@@H]1[C@H]3O [GLAUCOCALYXIN A]

- Kd (Platelet glycoprotein VI [9]): 360 µM
Compound: c1ccc(-c2ccccc2-c2nn[nH]n2)cc1

- Kd (Platelet glycoprotein VI [9]): 52 µM
Compound: c1ccc(CCOc2ccc(-c3ccccc3-c3nn[nH]n3)cc2)cc1

- IC50 [18]: > 0.05 µM
Compound: O=S(=O)(c1ccccc1)N(CC(F)(F)F)c1ccc(C(O)(C(F)(F)F)C(F)(F)F)cc1 [T091317]

- IC50 [18]: 0.03 µM
Compound: O=C(O)Cc1cccc(OCCCN(Cc2cccc(C(F)(F)F)c2Cl)CC(c2ccccc2)c2ccccc2)c1

- inhibition [22]: 50%
- MEC [7]: 0.5 µM
Compound: CCCCC1=NC2(CCCC2)C(=O)N1Cc1ccc(-c2ccccc2-c2nnn[nH]2)cc1 [IRBESARTAN]
- Activity [5]: 38%
